These are literature values, as cited in patent US20070191933A1, “Reduction of restenosis” (priority 2005, published 2007).

The data set concerns circulating T-cells. The following applies: FIG. 1.

As for alemtuzumab [Campath], under “after a single dose”, the “time to full recovery of T-cells” value is given as not below 3 months. For the same substance, the “killing of circulating T-cells” value (single dose) is recorded as “kill all circulating T-cells”.
